The record followed here is patent US20070225242A1, “Method and composition for treating and preventing tumor metastasis in vivo” (The Board of Trustees of the Leland Stanford Junior …, priority 2005, published 2007).

The subject of assay [1] is A549 Non-Small Cell Lung Cancer Cells. Put plainly: A549 cells injected into the tail vein of mice. The assay is classed as in vivo. As to conditions: sacrificed at Day 22; BAPN 100 mg/kg daily. How it is done: Human lung cancer A549 cells (ATCC CCL 185), known to be highly metastatic, were generated to stably express shRNA targeting LOX, as described in Methods. […] 1×10^6 cells were injected into the tail vein of mice (all cells go to the lung).
Lungs from the dead mice bearing control tumors were formalin fixed, paraffin embedded and H&E stained to quantify lung tumors. Most lungs contained no tumors but all mice had numerous lymph node metastases and one had liver metastases. N=5 mice bearing lung tumors expressing LOX shRNA were sacrificed at Day 22. […] In addition, n=5 mice bearing control tumors treated daily with BAPN (100 mg/kg) were sacrificed at Day 22. […] The number of lung tumors for the A549 control animals is low because it is believed that the tumors metastasized out of the lung.
Wild-type or LOX shRNA A549 Non-Small Cell Lung Cancer Cells were injected into the tail vein of immune deficient mice and analyzed for survival differences for a period of 181 days. 100% of animals with wild-type tumors died within 35 days compared with only 40% of animals stably transfected with a shRNA to LOX. Some animals were allowed two weeks to develop metastases, and then were left untreated or treated twice weekly with 2 mg/kg of the LOX antibody in Example 7. FIG. 12 is a Kaplan-Meyer plot showing survival of the animals.

Assay [2] deals with Caski human cervical cancer cells. Briefly: Tail vein metastasis and survival assay, Caski cells. The assay is classed as in vivo, mice. How it is done: Described briefly below are the results of experiments conducted with several different cell types. • 1. PANCREATIC: Panc-1 human pancreatic cells (see ATCC CRL-1469) expressing LOX shRNA were subjected to a tail vein metastasis assay comparing their metastatic growth to that of control Panc-1 cells. […] CERVICAL: Tail vein metastasis assays were performed using Caski human cervical cancer cells (See CRL-1550). After 4 weeks of growth, half the mice were treated with BAPN. […] COLON: HCT116 human colon cancer cells (see CCL-247) were transfected to express LOX shRNA and grown as subcutaneous tumors in nude mice, while comparing their growth with that of control cells.
Caski Cervical cancer cells were injected into the tail vein of immune deficient mice and analyzed for survival differences. Metastases were allowed to form for two weeks before animals were treated with 100 mg/kg BAPN daily for up to 40 days. FIG. 14 is a Kaplan-Meyer plot showing survival of the animals. […] Upon discontinuation of BAPN treatment, animals started to die.

Assay [3] deals with MDA231 cells. Put plainly: Pulmonary metastases from orthotopic MDA231 tumors with conditioned media injections after bone marrow transplantation. The assay is classed as in vivo, mice. An excerpt:
We then determined whether elevated levels of circulating LOX from hypoxic tumor cells could affect BMDC recruitment and formation of the metastatic niche. We transplanted male bone marrow cells into female mice prior to orthotopically implanting Wt or LOX shRNA MDA231 cells, and used in situ hybridization with a Y-chromosome-specific probe to investigate BMDC recruitment. We allowed two weeks for primary tumor formation, and then supplemented the mice with different levels of circulating LOX for four weeks by daily intraperitoneal CM injections (FIG. 20B).
Nude (nu/nu) 6-week old female mice were lethally irradiated (950 rads) and transplanted with 10^6 bone marrow cells isolated from the tibia and femur of nude (nu/nu) male mice 48 hr later. After 4 weeks, 10^7 MDA231 human breast cancer cells expressing either an shRNA targeting LOX or a scrambled control sequence were implanted orthotopically in the mammary fat pad.
Conditioned media (CM) consisted of serum-free Modified Eagle's Medium cultured on MDA231 LOX shRNA or control cells incubated in normoxia (N; 21% O2) or hypoxia (H; 2% O2) for 24 h. CM was passed through a 0.22-μm filter and 300-μl were injected intraperitoneally daily into mice (Kaplan (2005), supra). When stated, beta-aminoproprionitrile was added to CM for an injection dose of 100 mg/kg. […]

SMILES strings stand for the structures.

For `N#CCCN` [BAPN, β-aminoproprionitrile], in assay [1], the lung tumors result is given as “very few tumors” and the metastases entry was “no metastases”. In assay [2] (100 mg/kg BAPN daily for up to 40 days, started two weeks after injection), this compound gave an animals survived of 100%. The “disease course on renewed BAPN treatment” value in assay [2] (BAPN administered after 90 days to animals that already harbored metastases) is “became stabilized”. Further, the “lung foci (micro-metastases)” value in assay [2] (BAPN after 4 weeks of growth) is listed as “eliminated formation of any lung foci”. Also, the “pulmonary metastases of mice bearing Wt tumors” value in assay [3] (6 wk post-orthotopic implantation) is “eliminated”. In addition, the “increase in LOX shRNA tumor cell metastases in response to CM from hypoxic Wt cells” value in assay [3] (BAPN added to CM, injection dose 100 mg/kg) is given as “could be prevented”.
